Results published in PMC12679539, “Synthesis and evaluation of nitroheterocyclic aromatic adamantane amides with trypanocidal activity. Part II” (RSC Medicinal Chemistry, 2025).

How the values were obtained:
[1] = tested on: L. infantum intracellular amastigotes; assay: Activity against intracellular L. infantum amastigotes in THP-1 derived macrophages (luciferase); assay type: cell-based, Leishmania infantum (MHOM/MA/67/ITMAP-263); details: Leishmania infantum; for inhibition at 10 µM: THP-1, 72 h, read-out: L. infantum (intracellular amastigotes) % of growth inhibition at 10 μM ± ST DEV
Description: Leishmania infantum Luciferase-expressing L. infantum (strain MHOM/MA/67/ITMAP-263) axenic amastigotes were cultured in MAA/20 medium at 37 °C with 5% CO2, as described by Sereno et al. 1998.[26] The parasites were maintained in 5 mL T25 ventilated flasks and subcultured every seven days at a concentration of 1 × 10^6 cells per mL.
The activity against intracellular amastigotes of L. infantum was evaluated using a modified method described by Santarem, Tavares, and Cordeiro-da-Silva (2019).[27] THP-1 cells were differentiated into macrophages using PMA, as previously outlined. The differentiated macrophages were then infected with L. infantum axenic amastigotes expressing episomal luciferase at a macrophage-to-amastigote ratio of 1 : 10 for four hours at 37 °C in a 5% CO2 atmosphere. After this incubation, non-internalized parasites were washed away, and various concentrations of test compounds were added in a final volume of 100 μL. A dose–response curve for miltefosine was included in all assays to serve as a quality control. Each experimental condition was tested in quadruplicate. After 72 hours of incubation, the medium was replaced with 100 μL of PBS, and 25 μL of Glo-lysis buffer from the Steady-Glo Luciferase Assay System (Promega, Madison, WI, USA) was added. The plates were then agitated at 100 rpm for 10 minutes at room temperature. Following this, 30 μL of the Steady-Glo reagent (Promega, Madison, WI, USA) was added, and the mixture was incubated for 15 minutes in the dark under the same conditions. A total of 140 μL from each well was transferred to white-bottom 96-well plates, and luminescence intensity was measured using a Synergy 2 Multi-Mode Reader (Biotek, Winooski, VT, USA). The antileishmanial effect was assessed by comparing the results with those from non-treated infected cells. The IC50 value were determined through non-linear regression analysis using GraphPad Prism version 8.1.1 for Windows (GraphPad Software, San Diego, CA, USA). Results represent the average of at least three independent experiments.

L6 cells = assay: Cytotoxic activity against rat skeletal myoblast L6 cells (Alamar Blue); assay type: cell-based; details: 120 h, cytotoxicity, 5 days
Description: The cytotoxicity against mammalian cells was assessed using microtitre plates. Briefly, L6 cells (a rat skeletal muscle line) were seeded at 1 × 10^4 mL^−1 in 200 μL of RPMI-1640 growth medium (with 10% fetal calf serum) containing 7 different compound concentrations in a range previously established to encompass both the IC50 and IC90 values. The plates were incubated for 5 days at 37 °C and 20 μL Alamar Blue (Biosource Ltd, Wilton, North Yorkshire England.) was then added to each well. After an additional 8 hours incubation, the fluorescence was determined using a Gemini fluorescent plate reader (Molecular Devices). Inhibition of growth was calculated by comparison with control values and IC50 and IC90 values were determined in triplicate using linear regression analysis.

| SMILES | inhibition at 10 µM [1] [%] | IC50 (L6 cells) [µM] | IC50 ([1]; THP-1 derived macrophages, 72 h, 95% CI in brackets, read-out: L. infantum (intracellular amastigotes) IC50 (μM), 95% CI) [µM] |
| --- | --- | --- | --- |
| O=C(Cc1ccc(C23CC4CC(CC(C4)C2)C3)cc1)NCCn1cnc([N+](=O)[O-])n1 [6b, 2-[4-(1-Adamantyl)phenyl]-N-[2-(3-nitro-1H-1,2,4-triazol-1-yl)ethyl]acetamide] | 50.1 ± 23 | 30 ± 2 |  |
| O=C(CCc1ccc(C23CC4CC(CC(C4)C2)C3)cc1)NCCn1cnc([N+](=O)[O-])n1 [6c, 3-[4-(1-Adamantyl)phenyl]-N-[2-(3-nitro-1H-1,2,4-triazol-1-yl)ethyl]propanamide] | 47.6 ± 16.3 | 23 ± 2 |  |
| O=C(Cc1ccc(C23CC4CC(CC(C4)C2)C3)cc1)NCCCn1cnc([N+](=O)[O-])n1 [6e, 2-[4-(1-Adamantyl)phenyl]-N-[3-(3-nitro-1H-1,2,4-triazol-1-yl)propyl]acetamide] | 59.5 ± 12 | 23 ± 3 | 6.93 |
